Experimental findings from PubChem BioAssay (NCI) are described below.

Values joined by “and” are separate entries in the source; they are usually repeats but may differ in a detail not shown here. Identical values can stand only once.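 Results reflect a 48-hour exposure of cells in 96-well plates to compound at five concentrations. GI50 = concentration required for 50% inhibition of growth. The concentration for full growth arrest is given as TGI.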

Test systems include OVCAR-3 ovarian; UACC-62 melanoma; SN12C renal; T-47D breast; NCI-H522 lung; SNB-19 CNS; SF-268 CNS; MALME-3M melanoma; SK-MEL-28 melanoma; LOX IMVI melanoma; SK-MEL-5 melanoma; RXF 393 renal; SR leukemia.
Common to all, as to experiment: NCI-60 cell line screen, 48 h

For `CC1CCC2C(C(=O)O[C@H]3C4C=CO[C@@H](OC5OC(CO)C(O)C(O)C5O)C4[C@@]4(CO)O[C@@H]34)=CO[C@@H](OC3OC(CO)C(O)C(O)C3O)C12` (some centres not stated), the TGI in the experiment on OVCAR-3 ovarian, with UACC-62 melanoma, in the experiment on SN12C renal, in the experiment with T-47D breast, with NCI-H522 lung and with SNB-19 CNS was > 10 µM throughout. Also, the TGI with SF-268 CNS, in the experiment on MALME-3M melanoma, in the experiment with SK-MEL-28 melanoma, in the experiment on LOX IMVI melanoma, in the experiment with SK-MEL-5 melanoma and in the experiment with RXF 393 renal was > 10 µM each time.
Regarding `COC(=O)C1=CCC[C@H]2[C@@]1(COC(C)=O)CC[C@@H](C)[C@]2(C)CC(=O)c1ccoc1`, the TGI was > 50 µM in the experiment with OVCAR-3 ovarian; 20.1 µM in the experiment on UACC-62 melanoma; > 50 µM with SN12C renal; 35.7 µM in the experiment on T-47D breast; 22 µM with NCI-H522 lung; > 50 µM with SNB-19 CNS. Also, the TGI was > 50 µM in the experiment on SF-268 CNS, 24.7 µM in the experiment with LOX IMVI melanoma, 16.9 µM with SK-MEL-5 melanoma and > 50 µM in the experiment on RXF 393 renal.
With `Fc1nc(-c2c3ccccc3c3sc4ccccc4n23)nc(N2CCOCCOCCOCCOCC2)n1`, the TGI with SR leukemia was 68.6 µM; in the experiment with OVCAR-3 ovarian it was > 100 µM; in the experiment with UACC-62 melanoma it was > 100 µM; in the experiment with SN12C renal it was > 100 µM; with NCI-H522 lung, > 100 µM; in the experiment with SNB-19 CNS, > 100 µM. The TGI with SF-268 CNS is > 100 µM; with MALME-3M melanoma it was > 100 µM; with SK-MEL-28 melanoma it was > 100 µM; in the experiment on LOX IMVI melanoma, > 100 µM; in the experiment on SK-MEL-5 melanoma it was > 100 µM; in the experiment on RXF 393 renal, 51.6 µM.
With `COc1cc(CNc2ccc(C)cc2)cc(OC)c1OC`, the TGI with SR leukemia is > 100 µM; in the experiment with OVCAR-3 ovarian, 0.597 µM; with UACC-62 melanoma it was > 100 µM; in the experiment on SN12C renal it was > 87.6 µM; in the experiment with NCI-H522 lung it was 0.435 µM and 0.83 µM; with SNB-19 CNS, > 100 µM. The TGI was > 90.3 µM in the experiment with SF-268 CNS; > 100 µM in the experiment with MALME-3M melanoma; > 100 µM in the experiment with SK-MEL-28 melanoma; > 100 µM in the experiment on LOX IMVI melanoma; > 100 µM with SK-MEL-5 melanoma. Also, the GI50 with UACC-62 melanoma is 0.12 µM and 0.57 µM; in the experiment with SN12C renal it was 0.585 µM and 3.71 µM; in the experiment with SNB-19 CNS it was 0.959 µM; with MALME-3M melanoma, 0.276 µM and 0.658 µM; in the experiment with SK-MEL-28 melanoma, 0.525 µM; in the experiment on RXF 393 renal, 0.239 µM.
On to `Cc1ccc(C(=O)c2[nH]c(NCc3ccccc3)c(C(=S)Nc3ccccc3)c2N)cc1`, for which the TGI in the experiment with OVCAR-3 ovarian turned out to be 25.2 µM; in the experiment with UACC-62 melanoma it was 25.2 µM; with SN12C renal, 28.8 µM; in the experiment on T-47D breast, 33.5 µM; in the experiment on NCI-H522 lung it was 4.96 µM; in the experiment with SNB-19 CNS, 29.1 µM. In addition, the TGI in the experiment with SF-268 CNS was found to be 28.8 µM; with SK-MEL-28 melanoma, 9.97 µM; with LOX IMVI melanoma, 3.97 µM; in the experiment with RXF 393 renal, 20.7 µM.
In the case of `CC(C)(C)C1CC[C@H](O)[C@H]([C@@H](O)CC2CC(=O)N(c3ccccc3)C(=O)C2)C1` (some centres not stated), the TGI in the experiment on SR leukemia is > 100 µM; with OVCAR-3 ovarian, > 100 µM; in the experiment with UACC-62 melanoma it was 74.9 µM; in the experiment with SN12C renal, > 100 µM; in the experiment with NCI-H522 lung it was > 100 µM; in the experiment on SNB-19 CNS, > 100 µM. The TGI with SF-268 CNS, in the experiment on MALME-3M melanoma, in the experiment with SK-MEL-28 melanoma, in the experiment on LOX IMVI melanoma, in the experiment on SK-MEL-5 melanoma and with RXF 393 renal was > 100 µM each time.
For `CC1=CC(=O)c2ccc3c4ccccc4n(C)c3c2C1=O`, the TGI with OVCAR-3 ovarian was > 100 µM; with SN12C renal, > 100 µM; with T-47D breast, > 100 µM; with NCI-H522 lung, 78.9 µM; in the experiment with SNB-19 CNS, > 100 µM; in the experiment with SF-268 CNS, > 100 µM. Besides, the TGI was 30 µM in the experiment with MALME-3M melanoma, > 100 µM with SK-MEL-28 melanoma, 30.5 µM with SK-MEL-5 melanoma and > 100 µM with RXF 393 renal.
On to `O=C(O)CNc1ncc2c(n1)-c1ccccc1OC2`, for which the TGI in the experiment with SR leukemia, in the experiment with OVCAR-3 ovarian, in the experiment on UACC-62 melanoma, in the experiment with SN12C renal, in the experiment on SNB-19 CNS and with SF-268 CNS was > 100 µM each time. For the same compound, the TGI in the experiment on MALME-3M melanoma, in the experiment on SK-MEL-28 melanoma, with LOX IMVI melanoma, with SK-MEL-5 melanoma and in the experiment on RXF 393 renal was > 100 µM in each case.
Regarding `O=C(c1ccsc1)c1nccc2c1cnc1ccccc12`, the TGI was > 100 µM in the experiment on OVCAR-3 ovarian; > 100 µM in the experiment with UACC-62 melanoma; > 100 µM with SN12C renal; > 100 µM in the experiment with T-47D breast; 62 µM in the experiment with NCI-H522 lung; > 100 µM with SNB-19 CNS. In addition, the TGI with SF-268 CNS, in the experiment on MALME-3M melanoma, in the experiment with SK-MEL-28 melanoma, with LOX IMVI melanoma, with SK-MEL-5 melanoma and in the experiment on RXF 393 renal was > 100 µM in each case.
With `CCCCCCCCCCCC(=O)OCC(O)CO` (configuration not stated), the TGI with OVCAR-3 ovarian, with UACC-62 melanoma, in the experiment on SN12C renal, in the experiment with T-47D breast, in the experiment with NCI-H522 lung and in the experiment on SNB-19 CNS was > 100 µM throughout. The TGI in the experiment with SF-268 CNS, in the experiment on SK-MEL-28 melanoma, in the experiment on LOX IMVI melanoma and with SK-MEL-5 melanoma was > 100 µM in each case.
Turning to `CC[n+]1c(/C=C/c2cc(C(=O)OC)n3c2sc2ccccc23)sc2ccccc21`, the TGI was 42.4 µM in the experiment on OVCAR-3 ovarian; 30.9 µM in the experiment on UACC-62 melanoma; 49.3 µM in the experiment on SN12C renal; 30.7 µM in the experiment with NCI-H522 lung; 44 µM in the experiment with SNB-19 CNS; 42.2 µM with SF-268 CNS. Moreover, the TGI came to 33 µM in the experiment on MALME-3M melanoma, 40.5 µM in the experiment on LOX IMVI melanoma and 28.9 µM with SK-MEL-5 melanoma.
Regarding `C=Cc1c(-c2ccccc2)cnc2[nH]c3ccccc3c12`, the TGI in the experiment with SR leukemia, in the experiment with OVCAR-3 ovarian, in the experiment with UACC-62 melanoma, in the experiment with SN12C renal, in the experiment with NCI-H522 lung and with SNB-19 CNS was > 50 µM in each case. The TGI in the experiment on SF-268 CNS, in the experiment with MALME-3M melanoma, with SK-MEL-28 melanoma, with LOX IMVI melanoma, in the experiment with SK-MEL-5 melanoma and in the experiment with RXF 393 renal was > 50 µM in each case.
